Source: PubChem BioAssay (NCI)
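Here, GI50 denotes the concentration required for 50% inhibition of growth. TGI denotes the concentration required for complete inhibition of growth.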

Tests used:
Test in all cases: NCI tumour cell line growth inhibition, 384-well format
[1] = system: 786-0 renal
[2] = system: A549 NSCLC
[3] = system: ACHN renal
[4] = system: BT-549 breast
[5] = system: CCRF-CEM leukemia
[6] = system: COLO 205 colon
[7] = system: HCC-2998 colon
[8] = system: HCT-116 colon
[9] = system: HCT-15 colon
[10] = system: HL-60(TB) leukemia
[11] = system: HOP-62 NSCLC
[12] = system: HT29 colon
[13] = system: IGROV1 ovarian
[14] = system: K-562 leukemia
[15] = system: KM12 colon
[16] = system: LOX IMVI melanoma
[17] = system: M14 melanoma
[18] = system: MALME-3M melanoma
[19] = system: MCF7 breast
[20] = system: MDA-MB-231 breast
[21] = system: MDA-MB-435 melanoma
[22] = system: MDA-MB-468 breast
[23] = system: MOLT-4 leukemia
[24] = system: NCI-H23 lung
[25] = system: NCI-H322M lung
[26] = system: NCI-H460 NSCLC
[27] = system: NCI-H522 lung
[28] = system: OVCAR-3 ovarian
[29] = system: OVCAR-8 ovarian
[30] = system: PC-3 prostate
[31] = system: RPMI-8226 leukemia
[32] = system: RXF 393 renal
[33] = system: SF-268 CNS
[34] = system: SF-295 CNS
[35] = system: SF-539 CNS
[36] = system: SK-MEL-2 melanoma
[37] = system: SK-MEL-28 melanoma
[38] = system: SK-MEL-5 melanoma
[39] = system: SK-OV-3 ovarian
[40] = system: SN12C renal
[41] = system: SNB-19 CNS
[42] = system: SR leukemia
[43] = system: SW-620 colon
[44] = system: TK-10 renal
[45] = system: U251 glioblastoma
[46] = system: UACC-257 melanoma
[47] = system: UACC-62 melanoma
[48] = system: UO-31 renal
[49] = system: A498 renal
[50] = system: CAKI-1 renal
[51] = system: DU-145 prostate
[52] = system: EKVX NSCLC
[53] = system: HOP-92 NSCLC
[54] = system: HS 578T breast
[55] = system: NCI-H226 lung
[56] = system: NCI/ADR-RES ovarian
[57] = system: OVCAR-4 ovarian
[58] = system: OVCAR-5 ovarian
[59] = system: SNB-75 CNS
[60] = system: T-47D breast

CN(C)C/C=C/C(=O)Nc1ccc(C(=O)N2CCC[C@@H](Nc3ncc(Cl)c(-c4c[nH]c5ccccc45)n3)C2)cc1
GI50 [1]: 241 nM
TGI [1]: 683 nM
GI50 [2]: 294 nM
TGI [2]: 967 nM
GI50 [3]: 1890 nM
TGI [3]: 11200 nM
GI50 [4]: 16.4 nM
TGI [4]: 37.6 nM
GI50 [5]: 28 nM
TGI [5]: 74.5 nM
GI50 [6]: 19 nM
TGI [6]: 42.9 nM
GI50 [7]: 17.8 nM
TGI [7]: 38.1 nM
GI50 [8]: 31 nM
TGI [8]: 1170 nM
GI50 [9]: 3050 nM
TGI [9]: 9820 nM
GI50 [10]: 22.7 nM
TGI [10]: 37.4 nM
GI50 [11]: 159 nM
TGI [11]: 581 nM
GI50 [12]: 165 nM
TGI [12]: 478 nM
GI50 [13]: 22.9 nM
TGI [13]: 69.5 nM
GI50 [14]: 39.7 nM
TGI [14]: 840 nM
GI50 [15]: 34.7 nM
TGI [15]: 160 nM
GI50 [16]: 25.6 nM
TGI [16]: 48 nM
GI50 [17]: 106 nM
TGI [17]: 279 nM
GI50 [18]: 19.6 nM
TGI [18]: 39.4 nM
GI50 [19]: 26.6 nM
TGI [19]: 1290 nM
GI50 [20]: 25.4 nM
TGI [20]: 72.3 nM
GI50 [21]: 27 nM
TGI [21]: 90.4 nM
GI50 [22]: 17.7 nM
TGI [22]: 33.7 nM
GI50 [23]: 21.6 nM
TGI [23]: 42.9 nM
GI50 [24]: 27.4 nM
TGI [24]: 117 nM
GI50 [25]: 27.4 nM
TGI [25]: 67.8 nM
GI50 [26]: 184 nM
TGI [26]: 424 nM
GI50 [27]: 19 nM
TGI [27]: 36.3 nM
GI50 [28]: 18 nM
TGI [28]: 38.2 nM
GI50 [29]: 149 nM
TGI [29]: 398 nM
GI50 [30]: 46.3 nM
TGI [30]: 371 nM
GI50 [31]: 151 nM
TGI [31]: 285 nM
GI50 [32]: 24.5 nM
TGI [32]: 77.7 nM
GI50 [33]: 20.5 nM
TGI [33]: 44.7 nM
GI50 [34]: 274 nM
TGI [34]: 767 nM
GI50 [35]: 20.1 nM
TGI [35]: 43.6 nM
GI50 [36]: 19.9 nM
TGI [36]: 48.8 nM
GI50 [37]: 20.8 nM
TGI [37]: 48 nM
GI50 [38]: 28.3 nM
TGI [38]: 135 nM
GI50 [39]: 38.6 nM
TGI [39]: 352 nM
GI50 [40]: 46.8 nM
TGI [40]: 222 nM
GI50 [41]: 33.3 nM
TGI [41]: 1420 nM
GI50 [42]: 16.4 nM
TGI [42]: 30.3 nM
GI50 [43]: 71.4 nM
TGI [43]: 410 nM
GI50 [44]: 389 nM
TGI [44]: 14700 nM
GI50 [45]: 48.2 nM
TGI [45]: 399 nM
GI50 [46]: 41.9 nM
TGI [46]: 197 nM
GI50 [47]: 92.7 nM
TGI [47]: 321 nM
GI50 [48]: 2190 nM
TGI [48]: 5380 nM

Nc1ccn([C@@H]2C(F)=C(CO)[C@@H](O)[C@H]2O)c(=O)n1
GI50 [1]: 1090 nM
TGI [1]: > 100000 nM
GI50 [49]: 1510 nM
TGI [49]: 13600 nM
GI50 [2]: 461 nM
TGI [2]: > 35600 nM
GI50 [3]: 923 nM
TGI [3]: > 73100 nM
GI50 [4]: 25400 nM
TGI [4]: > 100000 nM
GI50 [50]: 383 nM
GI50 [5]: 825 nM
TGI [5]: 2590 nM
GI50 [6]: 775 nM
TGI [6]: 3960 nM
GI50 [51]: 396 nM
TGI [51]: 1810 nM
GI50 [52]: 33500 nM
TGI [52]: > 100000 nM
GI50 [7]: 1710 nM
TGI [7]: > 100000 nM
GI50 [8]: 409 nM
TGI [8]: 21400 nM
GI50 [9]: 1090 nM
TGI [9]: > 100000 nM
GI50 [10]: 374 nM
TGI [10]: 979 nM
GI50 [11]: 1260 nM
TGI [11]: 31500 nM
GI50 [53]: 745 nM
TGI [53]: 5650 nM
GI50 [54]: 13400 nM
TGI [54]: > 100000 nM
GI50 [12]: 922 nM
TGI [12]: > 42700 nM
GI50 [13]: 3950 nM
TGI [13]: > 100000 nM
GI50 [14]: 474 nM
TGI [14]: > 100000 nM
GI50 [15]: 2140 nM
TGI [15]: > 100000 nM
GI50 [16]: 791 nM
TGI [16]: 12000 nM
GI50 [17]: 763 nM
TGI [17]: > 21200 nM
GI50 [18]: 4430 nM
TGI [18]: > 100000 nM
GI50 [19]: 1020 nM
TGI [19]: > 100000 nM
GI50 [20]: 1320 nM
TGI [20]: > 93800 nM
GI50 [21]: 967 nM
TGI [21]: > 100000 nM
GI50 [22]: 38400 nM
TGI [22]: > 100000 nM
GI50 [23]: 182 nM
TGI [23]: 338 nM
GI50 [55]: 13500 nM
TGI [55]: > 100000 nM
GI50 [24]: 3070 nM
TGI [24]: 13100 nM
GI50 [25]: 5740 nM
TGI [25]: > 100000 nM
GI50 [26]: 361 nM
TGI [26]: 5460 nM
GI50 [27]: 539 nM
TGI [27]: 57300 nM
GI50 [56]: 882 nM
TGI [56]: 4300 nM
GI50 [28]: 4470 nM
TGI [28]: > 100000 nM
GI50 [57]: 23500 nM
TGI [57]: > 100000 nM
GI50 [58]: 1020 nM
TGI [58]: > 28300 nM
GI50 [29]: 704 nM
TGI [29]: > 23900 nM
GI50 [30]: 5230 nM
TGI [30]: > 78700 nM
GI50 [31]: 292 nM
TGI [31]: 922 nM
GI50 [32]: 2340 nM
TGI [32]: > 72100 nM
GI50 [33]: 2700 nM
TGI [33]: > 100000 nM
GI50 [34]: 2840 nM
TGI [34]: > 92800 nM
GI50 [35]: 1610 nM
TGI [35]: > 100000 nM
GI50 [36]: 19800 nM
TGI [36]: > 100000 nM
GI50 [37]: 1250 nM
TGI [37]: > 100000 nM
GI50 [38]: 7700 nM
TGI [38]: 68500 nM
GI50 [39]: 5570 nM
TGI [39]: > 59600 nM
GI50 [40]: 500 nM
TGI [40]: 4900 nM
GI50 [41]: 3370 nM
TGI [41]: > 100000 nM
GI50 [59]: 12300 nM
TGI [59]: > 100000 nM
GI50 [42]: 183 nM
TGI [42]: 344 nM
GI50 [43]: 893 nM
TGI [43]: > 50700 nM
GI50 [60]: 10700 nM
TGI [60]: > 100000 nM
GI50 [44]: 689 nM
TGI [44]: > 100000 nM
GI50 [45]: 2780 nM
TGI [45]: > 100000 nM
GI50 [46]: 28200 nM
TGI [46]: > 96500 nM
GI50 [47]: 3870 nM
TGI [47]: > 100000 nM
